Laboratory results published in patent publication US4895867A, “2-(5-phenyl-2-furanyl)imidazoles useful as cardiotonic agents” (Norwich Eaton Pharmaceuticals, Inc., priority 1988, dated 1990).
pEC50: −log10 of the molar value. Where a name gives a salt, the structure may show the parent alone.

Assays:
guinea pig atrial muscle = test: In vitro guinea pig atrial muscle contractile force measurement (Test Method I); assay type: cell-based; details: Cavia porcellus; calculated concentration required to increase the contractile force by 50% from the control level; isolated left atria, 30° C., mean of at least three tissues
Source text: Kaplan, "Strategy for the Discovery and Development of a Positive Inotropic Agent", Pharmacology and Therapeutics, Vol. 16 (1982), pp. 303-330. This test measures the effects of such compounds on the contractility of cardiac tissue excised from the atrial muscle of a guinea pig. In vitro guinea pig atrial muscle contractile force measurement Unfasted male Hartley albino guinea pigs, weighing 450-650 g (Charles River Breeding Laboratories, Inc., Wilmington, MA) were used in these studies. They were killed by cranial concussion at the beginning of the experiment. The heart was quickly removed into a Petri dish filled with a solution of the following composition (in water): NaCl 99.0 mM; Dextrose 11.0 mM; […]; MgSO4 1.2 mM; NaH2 PO4 1.3 mM; CaCl2.2H2 O 2.5 mM; NaHCO3 25.01 mM; bubbled with 95% 02 :5% CO2 at room temperature. A triple O silk ligature was tied to the edge of the left atrial appendage, using an intestinal needle. The appendage was cut off; a section was cut away from the wall which faced the heart, retaining a sheet of tissue from the outer face of the atrium. The tissue was mounted from a pair of point stimulating electrode hooks with 1 gram of tension in an organ bath maintained at 30° C. The ligature was tied to a Grass FT-103 force-displacement transducer, and responses were measured in grams of developed tension with a Grass Model 7 polygraph (Grass Instrument Co., Quincy, MA). The left atria were stimulated electrically with the following square wave parameters: 3 v; 4 msec 1 Hz, as soon as they were put into the baths. After a short time (3-5 minutes), voltage was increased until stable responses were obtained (10-25% above threshold). The tissues were allowed to equilibrate under such stimulation for at least 1 hour before experimentation. The test compounds were dissolved in water, if water soluble, or if not, in tetrahydrofurfuryl alcohol (Eastman D5C) or in an organic vehicle containing 90% polyethylene glycol, 6% ethanol, 3% propylene glycol and 1% H2 O). (Test compound solution concentrations were selected to keep injection volumes between 1 and 10 μl). Isoproterenol (0.54 to 5.4 nM) was given at the beginning of each experiment to confirm the viability and responsiveness of the tissues. Test agents were given in several graded doses in logarithmic increments. Responsiveness to isoproterenol was also assessed at the end of the experiment unless other positive drug responses were obtained near the end of the experiment. Results were expressed as percent change from control for contractile force. The EC50 value (calculated concentration required to increase the contractile force by 50% from the control level) for each tissue was obtained, where possible, by regression analysis. The mean of the EC50 values was obtained from at least three individual tissues for each compound tested. Compounds having the following chemical structure were tested for cardiotonic activity according to one or both of the above test methods: [drawing 3] Determinations of contractile force EC50 according to Test Method I and ventricular pressure ED50 according to Test Method II which have been obtained for the compounds are provided in Table I: […]

[1] = tested on: right ventricle of guinea pig; test: In vivo guinea pig ventricular pressure measurement (Test Method II); details: Cavia porcellus, iv; calculated dose required to increase the right ventricular pressure by 50% from the control level, anesthetized guinea pig
Method: An additional or alternative method for testing the cardiotonic activity of compounds of the present invention is set forth in the following reference: Beek, O. G., "A Small Animal Model for Monitoring Inotropic Responses to Cardiotonic Agents", Journal of Pharmacological Methods, Vol. 7 (1982), pp. 321-329. Right ventricular inotropic responses are measured in an anesthetized, close-chested guinea pig using a pressure-sensitive transducer inserted into the right ventricle of the heart via the right jugular vein.
In vivo guinea pig ventricular pressure measurement
Unfasted male Hartley albino guinea pigs, weighing 450-650 g (Charles River Breeding Laboratories, Inc., Wilmington, MA) were used in these studies. Under ethyl carbamate (urethane) anesthesia (1.25 g/kg i.p.), the trachea was cannulated through a mid-ventral cervical incision. The left carotid artery was cannulated with PE-50 tubing (Clay Adams Co., Parsippany, NJ) filled with 100 µg/ml heparin for blood pressure monitoring, and the left jugular vein was cannulated (catheter filled with saline) for drug administration. A 3Fr Millar Mikro-Tip ventricular pressure catheter (Millar instruments, Inc., Houston, Texas) was positioned in the right ventricle via the right jugular vein. A thoracotomy was performed and the guinea pig was respired by a rodent respirator (Model 680, Harvard Apparatus Co., Millis, MA) at a rate of 8 ml/stroke×40 strokes/minute. A modified Brodie strain gauge (Warren Research Products, Charleston, South Carolina) was sutured on the right ventricle parallel to, but avoiding, the intraventricular septum. The rectal body temperature of 37° C. was maintained by an electronic temperature controlled lamp. The animals were left undisturbed for 60 minutes before being used for an experiment.
A single i.v. bolus does of 0.3 μg/kg isoproterenol was administered followed by a 0.2 ml saline flush prior to and at the end of each experiment to check the viability and responsiveness of each animal. Usually a vehicle does in a volume equal to the single largest volume of compound to be administered was intravenously injected 20-30 minutes after the initial isoproterenol injection when parameters had returned to baseline levels. A non-cumulative dose response curve was determined for each compound using a minimum of 3 doses. Time between doses for all compounds was dependent upon the time needed for all parameters to return to baseline or stable levels. A minimum of 3 animals per dose level was tested for each compound.
Results were expressed as percent changes from pretreatment baseline for all parameters measured. The ED50 values of ventricular pressure changes (calculated dose required to increase the right ventricular pressure by 50% from the control level) of test compounds were determined by regression analysis.
Compounds having the following chemical structure were tested for cardiotonic activity according to one or both of the above test methods: [drawing 3] Determinations of contractile force EC50 according to Test Method I and ventricular pressure ED50 according to Test Method II which have been obtained for the compounds are provided in Table I: […]

Compound	pEC50 (guinea pig atrial muscle)	ED50 [1] [mg/kg]
Clc1ccc(-c2ccc(-c3ncc[nH]3)o2)c(Cl)c1 [Example 12]	5.89	2.05
COc1cc(-c2ccc(-c3ncc[nH]3)o2)ccc1Br [Example 29, 2-[5-(4-Bromo-3-methoxyphenyl)-2-furanyl]-1H-imidazole Hydrochloride]	5.47	–
FC(F)(F)c1ccc(-c2ccc(-c3ncc[nH]3)o2)cc1 [Example 16]	5.52	–
Cc1c[nH]c(-c2ccc(-c3ccccc3Br)o2)n1 [Example 32, 2-[5-(2-Bromophenyl)-2-furanyl]-4-methyl-1H-imidazole Hydrochloride]	5.77	–
Brc1ccccc1-c1ccc(-c2ncc[nH]2)o1 [Example 8, 2-[5-(2-Bromophenyl)-2-furanyl]imidazole Hydrochloride Tetartohydrate]	5.24	0.8
COc1ccc(-c2ccc(-c3ncc[nH]3)o2)c([N+](=O)[O-])c1 [Example 17]	5.09	–
O=[N+]([O-])c1ccccc1-c1ccc(-c2ncc[nH]2)o1 [Example 5]	4.22	29.1
c1ccc(-c2ccc(-c3ncc[nH]3)o2)cc1 [Example 6]	4.64	1.98
COc1ccc(-c2ccc(-c3ncc[nH]3)o2)cc1 [Example 28]	4.55	–
Brc1ccc(-c2ccc(-c3ncc[nH]3)o2)c(Br)c1 [Example 21]	5.10	–
CC(C)c1ccc(-c2ccc(-c3ncc[nH]3)o2)cc1 [Example 20, 2-[5-[4-(1-Methylethyl)phenyl]-2-furanyl]-1H-imidazole Hydrochloride]	5.17	–
Cc1cn(C)c(-c2ccc(-c3ccc(Br)cc3)o2)n1 [Example 34, 2-[5-(4-Bromophenyl)-2-furanyl]-1,4-dimethyl-1H-imidazole Hydrochloride Hydrate]	< 4.00	–
Fc1ccccc1-c1ccc(-c2ncc[nH]2)o1 [Example 10]	5.14	–
Cc1cnc(-c2ccc(-c3ccc(Br)cc3)o2)n1C [Example 33, 2-[5-(4-Bromophenyl)-2-furanyl]-1,5-dimethyl-1H-imidazole Hydrochloride]	4.30	–
Clc1ccccc1-c1ccc(-c2ncc[nH]2)o1 [Example 9]	5.43	–
Brc1cccc(Br)c1-c1ccc(-c2ncc[nH]2)o1 [Example 24]	< 4.00	–
Cn1ccnc1-c1ccc(-c2ccc(Br)cc2)o1 [Example 22]	< 4.00	–

Compound	pEC50 (guinea pig atrial muscle)	ED50 [1] [mg/kg]
FC(F)(F)c1cccc(-c2ccc(-c3ncc[nH]3)o2)c1 [Example 3]	5.19	–
Fc1ccc(-c2ccc(-c3ncc[nH]3)o2)cc1 [Example 15]	4.48	–
Cc1cc(Br)ccc1-c1ccc(-c2ncc[nH]2)o1 [Example 31, 2-[5-(4-Bromo-2-methylphenyl)-2-furanyl]-1H-imidazole Hydrochloride]	5.72	–
COc1ccc(-c2ccc(-c3ncc[nH]3)o2)cc1OC [Example 4]	3.72	3.16
Ic1ccc(-c2ccc(-c3ncc[nH]3)o2)cc1 [Example 27]	4.99	–
Cc1c[nH]c(-c2ccc(-c3ccc(Br)cc3)o2)n1 [Example 23, 2-[5-(4-Bromophenyl)-2-furanyl]-4-methyl-1H-imidazole Hydrochloride]	6.30	–
Clc1ccc(-c2ccc(-c3ncc[nH]3)o2)cc1 [Example 2]	5.46	0.31
CCn1ccnc1-c1ccc(-c2ccccc2Br)o1 [Example 30, 2-[5-(2-Bromophenyl)-2-furanyl]-1-ethyl-1H-imidazole Hydrochloride]	4.67	–
Clc1ccc(-c2ccc(-c3ncc[nH]3)o2)cc1Cl [Example 13]	5.27	–
FC(F)(F)c1cc(-c2ccc(-c3ncc[nH]3)o2)ccc1Br [Example 26]	5.40	–
FC(F)(F)c1ccccc1-c1ccc(-c2ncc[nH]2)o1 [Example 11]	4.55	–
CC(=O)c1ccc(-c2ccc(-c3ncc[nH]3)o2)cc1 [Example 7]	4.40	–
O=[N+]([O-])c1ccc(-c2ccc(-c3ncc[nH]3)o2)cc1 [Example 1]	3.59	–
Brc1ccc(-c2ccc(-c3ncc[nH]3)o2)cc1 [Example 14]	5.89	–
Cc1ccc(-c2ccc(-c3ncc[nH]3)o2)cc1 [Example 19, 2-[5-(4-methylphenyl)-2-furanyl]-1H-imidazole hydrochloride]	5.43	–
Cc1ccc(-c2ccc(-c3ncc[nH]3)o2)c(Br)c1 [Example 25]	5.82	–
Cn1ccnc1-c1ccc(-c2ccccc2Br)o1 [Example 18]	4.68	–
